# Numbers after ± are expanded uncertainties.
# Settings: 298.15 K; 101.33 kPa; Liquid; Vibrating tube method
row,Structure (SMILES),mass density [kg/m3]
1,CC(=O)CCc1ccccc1 [4-phenyl-2-butanone],984.742 ± 4
2,CC(=O)OCc1ccccc1 [benzyl ethanoate],1051.1 ± 4.2
3,CCCCCCCCCCCC [dodecane],745.508 ± 3

# Second part, the compound after the results:
row,mass density [kg/m3],Structure (SMILES)
1,770.221 ± 3.1,CCCCCCCCCCCCCCCC [hexadecane]
2,759.275 ± 3,CCCCCCCCCCCCCC [tetradecane]

# Source: the NIST ThermoML archive (doi:10.1021/acs.jced.6b00803)
